# In patent publication US20080300243A1, “Amide Derivatives as Ion-Channel Ligands and Pharmaceutical Compositions and Methods of Using the Same” (priority 2005, published 2008):
# Target: VR1 (Homo sapiens, UniProt Q8NER1)
# Test: Calcium uptake assay, low pH (proton) stimulus
# Assay type: cell-based
# Parameters: expressed in transfected cells; host or cells: T-REx HEK 293 (Invitrogen), pcDNA5/TO vector
# Conditions: low pH agonist, HEK 293 cells expressing hVR1; for inhibition at 0.3 µM / Low pH % Inhib. @ 0.3 μM: 0.3 μM compound; for inhibition at 0.3 µM: read-out: Low pH % Inhib. @ 0.3 μM
# VR1, sequence (Q8NER1 whole entry): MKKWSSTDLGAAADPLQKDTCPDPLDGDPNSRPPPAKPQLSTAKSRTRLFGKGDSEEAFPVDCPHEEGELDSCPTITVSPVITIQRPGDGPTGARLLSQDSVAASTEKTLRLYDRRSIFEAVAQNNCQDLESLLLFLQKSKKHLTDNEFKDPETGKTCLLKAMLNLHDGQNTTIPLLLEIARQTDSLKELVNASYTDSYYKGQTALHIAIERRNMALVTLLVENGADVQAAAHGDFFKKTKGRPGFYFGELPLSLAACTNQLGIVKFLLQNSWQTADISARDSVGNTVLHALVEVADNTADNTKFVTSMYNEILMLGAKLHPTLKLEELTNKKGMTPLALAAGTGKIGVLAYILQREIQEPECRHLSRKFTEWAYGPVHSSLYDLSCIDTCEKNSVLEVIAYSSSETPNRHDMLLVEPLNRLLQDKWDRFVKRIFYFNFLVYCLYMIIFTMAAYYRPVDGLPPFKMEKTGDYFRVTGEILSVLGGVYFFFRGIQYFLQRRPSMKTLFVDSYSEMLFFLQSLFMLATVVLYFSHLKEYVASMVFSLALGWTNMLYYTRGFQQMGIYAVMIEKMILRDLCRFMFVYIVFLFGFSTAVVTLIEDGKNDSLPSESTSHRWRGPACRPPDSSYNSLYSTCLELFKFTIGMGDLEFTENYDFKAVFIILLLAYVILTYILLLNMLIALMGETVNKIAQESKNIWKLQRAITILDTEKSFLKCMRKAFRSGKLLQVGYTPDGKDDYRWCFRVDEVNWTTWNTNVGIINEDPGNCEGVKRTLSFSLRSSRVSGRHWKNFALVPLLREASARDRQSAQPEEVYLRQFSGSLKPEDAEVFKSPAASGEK
inhibition at 0.3 µM (HEK293) [%],Compound,also measured
98,O=C(Nc1ccc2c(c1)OCCN2)c1ccc(C#CC2CCCC2)cc1 [Compound 117],
103,CC(C)(C)C#Cc1ccc(C(=O)Nc2ccc3c(c2)NCC3(C)C)cc1 [Compound 69],
124,CC1(C)CNc2ccc(NC(=O)c3ccc(/C=C/C(F)(F)F)cc3)cc2O1 [Compound 72],
95,CC(C)(C)C#Cc1ccc(C(=O)Nc2ccc3c(c2)OCC(CO)O3)c(F)c1 (stereo not drawn) [Compound 154],
95,Cc1cc(C#CC2CCCC2)ccc1C(=O)Nc1ccc2c(c1)OCCN2 [Compound 139],
109,Cc1nc2cc(NC(=O)c3ccc(C#CC(C)(C)C)cc3F)ccc2s1 [Compound 173],
9,CC1=Cc2c(cccc2NC(=O)c2ccc(/C=C/C(F)(F)F)cc2)NN1 [Compound 113],
5,CC(C)(C)C#Cc1ccc(C(=O)Nc2ccc3c(c2)OC(F)(F)O3)cc1 [Compound 50],
105,Cn1ccc2cc(NC(=O)c3ccc(C#CC(C)(C)C)cc3)ccc21 [Compound 33],
73,Cc1cc(C#CC2CC2)ccc1C(=O)Nc1ccc2c(c1)OCCO2 [Compound 152],
,"O=C(Nc1ccc2c(c1)OCC(CO)O2)c1ccc(/C=C/C(F)(F)F)cc1 (single isomer, unassigned) [Compound 108]",Low pH % Inhib. @ 0.3 μM: 116%
103,CC(C)(C)C#Cc1ccc(C(=O)Nc2ccc3c(c2)OCCN3)c(F)c1 [Compound 137],
100,CC(C)(C)C#Cc1cc(F)c(C(=O)Nc2cnc3ccccc3c2)c(F)c1 [Compound 179],
95,CC(C)(C)C#Cc1ccc(C(=O)Nc2cccc3cnccc23)c(Cl)c1 [Compound 161],
102,Cc1cc(C(=O)Nc2cccc3cnccc23)ccc1C#CC(F)(F)F [Compound 75],
86,CC(C)(C)/C=C/c1ccc(C(=O)Nc2cccc3cnccc23)cc1 [Compound 40],
88,O=C(Nc1ccc2c(c1)OCCN2)c1ccc(C#CC2CC2)cc1Cl [Compound 147],
59,Cc1cc(C#CC(C)(C)C)ccc1C(=O)Nc1ccc2[nH]c(=O)oc2c1 [Compound 217],
42,O=C(Nc1ccc2c(c1)OCCO2)c1ccc(C#CC2CCCC2)cc1 [Compound 100],
82,Cc1cc(/C=C/C(F)(F)F)ccc1C(=O)Nc1ccc2cccnc2c1 [Compound 224],
105,CC(C)(C)C#Cc1ccc(C(=O)Nc2ccc3c(c2)OCCO3)cc1 [Compound 30],

inhibition at 0.3 µM (HEK293) [%],Compound,also measured
95,CC(C)(C)C#Cc1ccc(C(=O)Nc2cccc3cnccc23)c(F)c1 [Compound 175],
29,O=C(Nc1ccc2c(c1)OCCN2)c1ccc(/C=C\C(F)(F)F)cc1F [Compound 135],
185,O=C(Nc1ccc2c(c1)OCCN2)c1ccc(C#CC(F)(F)F)cc1 [Compound 70],
45,CN1C(=O)COc2ccc(NC(=O)c3ccc(/C=C/C(F)(F)F)cc3)cc21 [Compound 84],
19,COc1cc(/C=C\C(F)(F)F)ccc1C(=O)Nc1ccc2c(c1)OCCO2 [Compound 121],
48,CN1CCOc2ccc(NC(=O)c3ccc(/C=C/C(F)(F)F)cc3)cc21 [Compound 88],
97,Cc1cc(C#CC(C)(C)C)ccc1C(=O)Nc1cnc2[nH]ccc2c1 [Compound 212],
105,O=C(Nc1ccc2c(c1)OCCO2)c1ccc(C#CC(F)(F)F)cc1 [Compound 43],
108,Cc1cc(C#CC2CC2)ccc1C(=O)Nc1ccc2c(c1)OCC(CO)O2 (stereo not drawn) [Compound 151],
,COc1cc(NC(=O)c2ccc(/C=C/C(C)C)cc2)cc(C(F)(F)F)c1 [Compound 240],"inhibition at 1 µM (HEK293, 1 μM compound, read-out: Low pH % Inhib. (at 1 μM)): 75%"
99,Cc1cc(/C=C/C(F)(F)F)ccc1C(=O)Nc1cnc2[nH]ccc2c1 [Compound 230],
8,CC(C)(C)C#Cc1ccc(C(=O)Nc2ccc3c(c2)N(CCN2CCOCC2)CC3(C)C)cc1 [Compound 67],
103,CC(C)(C)C#Cc1ccc(C(=O)Nc2ccc3c(c2)OC[C@H](CO)N3)c(Cl)c1 [Compound 182],
88,Cc1cc(C#CC(C)(C)C)ccc1C(=O)Nc1ccc2c(c1)C(=O)NC2=O [Compound 213],
5,O=C(Nc1ccc2c(c1)NCCO2)c1ccc(C#CC2CCCC2)cc1 [Compound 106],
98,Cn1ccc2cc(NC(=O)c3ccc(/C=C/C(C)(C)C)cc3)ccc21 [Compound 42],
101,CC(C)(C)/C=C/c1ccc(C(=O)Nc2cnc3ccccc3c2)cc1 [Compound 41],
94,O=C(Nc1cccc2cnccc12)c1ccc(C#CC2CCCC2)cc1 [Compound 101],
14,CCn1c2ccccc2c2cc(NC(=O)c3ccc(/C(C)=C\C(C)(C)C)cc3)ccc21 [Compound 19],
94,CN1CCOc2cc(NC(=O)c3ccc(/C=C/C(F)(F)F)cc3)ccc21 [Compound 73],
86,Cc1cc2c(NC(=O)c3ccc(/C=C/C(F)(F)F)cc3C)cccc2cn1 [Compound 196],

inhibition at 0.3 µM (HEK293) [%],Compound,also measured
102,O=C(Nc1ccc2c(c1)OCC(CO)O2)c1ccc(C#CC2CC2)cc1Cl (stereo not drawn) [Compound 156],
98,CC(C)(C)C#Cc1ccc(C(=O)Nc2ccc3c(c2)OCC(CO)O3)cc1 (stereo not drawn) [Compound 81],
10,CC(C)(C)C#Cc1ccc(C(=O)Nc2cccc3cnccc23)c(Cl)n1 [Compound 66],
70,O=C(Nc1ccc2c(c1)OCCO2)c1ccc(/C=C/C(F)(F)F)cc1F [Compound 142],
19,COc1cc(/C=C\C(F)(F)F)ccc1C(=O)Nc1ccc2c(c1)OCCN2 [Compound 120],
104,O=C(Nc1ccc2c(c1)OCCN2)c1c(F)cc(C#CC2CC2)cc1F [Compound 130],
78,CN1CCCc2ccc(NC(=O)c3ccc(C#CC4CCCC4)cc3)cc21 [Compound 98],
21,CC(C)(C)C#Cc1ccc(C(=O)Nc2cccc3cnccc23)nc1 [Compound 91],
90,Cc1cc2c(NC(=O)c3ccc(/C=C/C(F)(F)F)cc3)cccc2cn1 [Compound 114],
83,CC(C)(C)/C=C/c1ccc(C(=O)Nc2ccc3c(c2)OCCO3)cc1 [Compound 1],
12,COc1cc(C#CC(C)(C)C)ccc1C(=O)Nc1ccc2c(c1)OCCN2 [Compound 128],
76,CC(C)(C)C#Cc1ccc(C(=O)Nc2ccc3c(c2)OC(CO)CO3)cc1 (stereo not drawn) [Compound 82],
,CS(=O)(=O)OCC1COc2cc(NC(=O)c3ccc(C#CC4CCCC4)cc3)ccc2O1 (stereo not drawn) [Compound 116],Low pH % Inhib. @ 0.3 μM: 10%
90,O=C(Nc1ccc2nccnc2c1)c1ccc(/C=C/C(F)(F)F)cc1 [Compound 115],
101,O=C(Nc1ccc2sc(CO)nc2c1)c1ccc(/C=C/C(F)(F)F)cc1 [Compound 55],
50,O=C(Nc1cc2c(cc1Cl)NCCO2)c1ccc(/C=C/C(F)(F)F)cc1 [Compound 136],
33,Cc1cc(C#CC2CCCC2)ccc1C(=O)Nc1ccc2c(c1)OCCO2 [Compound 140],
41,O=C(Nc1ccc2c(c1)OCCO2)c1ccc(C#CC2CC2)cc1F [Compound 145],
,CC(C)(C)C#Cc1ccc(C(=O)Nc2cnc3ccccc3c2)cc1 [Compound 32],Low pH % Inhib. @ 0.3 μM: 101%
98,CC(C)(C)C#Cc1ccc(C(=O)Nc2cccc3cnccc23)cn1 [Compound 23],
32,CN1C(=O)C(C)(C)Oc2ccc(NC(=O)c3ccc(/C=C/C(F)(F)F)cc3)cc21 [Compound 78],

inhibition at 0.3 µM (HEK293) [%],Compound,also measured
71,O=C(Nc1ccc2c(c1)S(=O)(=O)C=C2)c1ccc(/C=C/C(F)(F)F)cc1 [Compound 92],
91,C/C(=C\c1ccc(C(=O)Nc2ccc3c(c2)OCCO3)cc1)C(F)(F)F [Compound 102],
55,O=C(Nc1cnc2ccccc2c1)c1ccc(C#CC2CC2)cc1 [Compound 47],
91,Cc1cc(C#CC(C)(C)C)ccc1C(=O)Nc1ccc2c(c1)OCC(CO)O2 (stereo not drawn) [Compound 186],
100,O=C(Nc1ccc2c(c1)OCCN2)c1ccc(C#CC2CC2)cc1F [Compound 143],
71,O=C(Nc1ccc2c(c1)OCC(CO)O2)c1ccc(/C=C/C(F)(F)F)cc1F (stereo not drawn) [Compound 149],
104,CC(C)(C)C#Cc1ccc(C(=O)Nc2ccc3c(c2)OCO3)cn1 [Compound 26],
12,C/C(=C/C(C)(C)C)c1ccc(C(=O)Nc2ccc3ncccc3c2)cc1 [Compound 18],
76,O=C(Nc1ccc2sc(CO)nc2c1)c1ccc(C#CC(F)(F)F)cc1 [Compound 54],
101,CC(C)(C)C#Cc1ccc(C(=O)Nc2cnc3ccccc3c2)cc1 [Compound 24],
26,CC(C)/C=C/c1ccc(C(=O)Nc2ccc3c(c2)OCCO3)cc1 [Compound 8],
112,O=C(Nc1ccc2c(c1)OC[C@@H](CO)N2)c1ccc(C#CC2CC2)cc1F [Compound 169],
102,CC(C)(C)C#Cc1ccc(C(=O)Nc2ccc3c(c2)OCO3)cc1 [Compound 28],
96,O=C(Nc1ccc2c(c1)OCCO2)c1ccc(C#CC2CC2)cc1 [Compound 49],
34,CC(C)/C=C/c1ccc(C(=O)Nc2ccc3ncccc3c2)cc1 [Compound 11],
92,CN1CCCc2ccc(NC(=O)c3ccc(C#CC4CC4)cc3)cc21 [Compound 80],
83,CC(C)(C)C#Cc1cc(Cl)c(C(=O)Nc2ccc3c(c2)OCC(CO)O3)cc1F (stereo not drawn) [Compound 191],
85,Cc1nc2cc(NC(=O)c3ccc(/C=C/C(F)(F)F)cc3F)ccc2s1 [Compound 177],
